How the values were obtained:
[1] = test system: corn; test: Test B pre/postemergence corn; assay type: in vivo, Zea mays
In short: (§1)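 Test chemicals in a non-phytotoxic solvent mixture with surfactant were sprayed preemergence onto planted seeds and postemergence onto plants 2 to 18 cm tall (1- to 4-leaf stage). After twelve to sixteen days in a greenhouse, injury was visually rated against untreated controls from 0 (no effect) to 10 (complete control).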

[2] = test system: purple nutsedge; test: Test B pre/postemergence purple nutsedge; assay type: in vivo, Cyperus rotundus
In short: as §1

[3] = test system: wild oat; test: Test B pre/postemergence wild oat; assay type: in vivo, Avena fatua
In short: as §1

[4] = test system: surinam grass; test: Test B pre/postemergence surinam grass; assay type: in vivo, Brachiaria decumbens
In short: as §1

[5] = test system: crabgrass; test: Test B pre/postemergence crabgrass; assay type: in vivo, Digitaria sanguinalis
In short: as §1

[6] = test system: duck salad; test: Test B flood test duck salad; assay type: in vivo, Heteranthera limosa
In short: (§2)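 Flood test on plants grown to the 2-leaf stage; treated plants kept in greenhouse twelve to sixteen days, then visually rated against controls on a 0 (no effect) to 10 (complete control) scale.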

[7] = test system: wheat; test: Test B pre/postemergence wheat; assay type: in vivo, Triticum aestivum
In short: as §1

[8] = test system: blackgrass; test: Test B pre/postemergence blackgrass; assay type: in vivo, Alopecurus myosuroides
In short: as §1

[9] = test system: rape; test: Test B pre/postemergence rape; assay type: in vivo, Brassica napus
In short: as §1

[10] = test system: cocklebur; test: Test B pre/postemergence cocklebur; assay type: in vivo, Xanthium strumarium
In short: as §1

[11] = test system: sugar beet; test: Test B pre/postemergence sugar beet; assay type: in vivo, Beta vulgaris
In short: as §1

[12] = test system: bedstraw; test: Test B pre/postemergence bedstraw; assay type: in vivo, Galium aparine
In short: as §1

[13] = test system: soybean; test: Test B pre/postemergence soybean; assay type: in vivo, Glycine max
In short: as §1

[14] = test system: velvetleaf; test: Test B pre/postemergence velvetleaf; assay type: in vivo, Abutilon theophrasti
In short: as §1

[15] = test system: smallflower flatsedge; test: Test B flood test smallflower flatsedge; assay type: in vivo, Cyperus difformis
In short: as §2

[16] = test system: bamyardgrass; test: Test B flood test barnyardgrass; assay type: in vivo, Echinochloa crus-galli
In short: as §2

[17] = test system: rice; test: Test B flood test rice; assay type: in vivo, Oryza sativa
In short: as §2

[18] = Preemergence, Rate 31 g/ha, visual rating, scale 0 to 10 (0 no effect, 10 complete control)
[19] = Preemergence, Rate 62 g/ha, scale of 0 to 10 where 0 is no effect and 10 is complete control
[20] = Preemergence, Rate 250 g/ha, scale of 0 to 10 where 0 is no effect and 10 is complete control
[21] = Rate 31 g/ha, Postemergence, scale 0 to 10
[22] = Rate 62 g/ha, Postemergence, scale 0 to 10 (0 no effect, 10 complete control)
[23] = Rate 125 g/ha, Postemergence, scale of 0 to 10 where 0 is no effect and 10 is complete control
[24] = Rate 125 g/ha, Preemergence, scale of 0 to 10 where 0 is no effect and 10 is complete control
[25] = Rate 250 g/ha, Postemergence, scale of 0 to 10 where 0 is no effect and 10 is complete control
[26] = Rate 31 g/ha, Pre-emergence section (flood test species), scale 0 to 10
[27] = Rate 62 g/ha, headed Pre-emergence (flood test species), scale 0 to 10 (0 no effect, 10 complete control)
[28] = Rate 125 g/ha, Pre-emergence, flood test species, scale 0 to 10 where 0 is no effect and 10 is complete control
[29] = Rate 250 g/ha, Pre-emergence, flood-test species, scale 0 to 10, 0 is no effect, 10 is complete control

## CC(C)=CCn1c(=O)on(C(=O)N(c2ccc(F)cc2)C(C)C)c1=O [Compound 288]
[1]; [18]
  Corn plant response rating: 0
[1]; [19]
  Corn plant response rating: 0
[1]; [20]
  Corn plant response rating: 0
[1]; [21]
  Corn plant response rating: 0
[1]; [22]
  Corn plant response rating: 0
[1]; [23]
  Corn plant response rating: 0
[1]; [24]
  Corn plant response rating: 0
[1]; [25]
  Plant response rating, Corn: 0
[2]; [18]
  Nutsedge plant response rating: 0
[2]; [19]
  Nutsedge plant response rating: 0
[2]; [20]
  Nutsedge plant response rating: 0
[2]; [21]
  Nutsedge plant response rating: 0
[2]; [22]
  Nutsedge plant response rating: 0
[2]; [23]
  Nutsedge plant response rating: 0
[2]; [24]
  Nutsedge plant response rating: 0
[2]; [25]
  Plant response rating, Nutsedge: 0
[3]; [18]
  Wild oats plant response rating: 0
[3]; [19]
  Wild oats plant response rating: 0
[3]; [20]
  Wild oats plant response rating: 5
[3]; [22]
  Wild oats plant response rating: 0
[3]; [23]
  Wild oats plant response rating: 0
[3]; [25]
  Plant response rating, Wild oats: 0
[4]; [18]
  B. signalgrass plant response rating: 0
[4]; [19]
  B. signalgrass plant response rating: 0
[4]; [20]
  B. signalgrass plant response rating: 6
[4]; [21]
  B. signalgrass plant response rating: 0
[4]; [22]
  B. signalgrass plant response rating: 0
[4]; [23]
  B. signalgrass plant response rating: 0
[4]; [24]
  B. signalgrass plant response rating: 4
[4]; [25]
  Plant response rating, B. signalgrass: 0
[5]; [18]
  Crabgrass plant response rating: 0
[5]; [19]
  Crabgrass plant response rating: 1
[5]; [20]
  Crabgrass plant response rating: 10
[5]; [21]
  Crabgrass plant response rating: 0
[5]; [22]
  Crabgrass plant response rating: 0
[5]; [23]
  Crabgrass plant response rating: 0
[5]; [24]
  Crabgrass plant response rating: 2
[5]; [25]
  Plant response rating, Crabgrass: 3
[6]; [26]
  Ducksalad plant response rating: 0
[6]; [27]
  Ducksalad plant response rating: 0
[6]; [28]
  Ducksalad plant response rating: 0
[6]; [29]
  Ducksalad plant response rating: 0
[7]; [18]
  Wheat plant response rating: 0
[7]; [19]
  Wheat plant response rating: 0
[7]; [20]
  Wheat plant response rating: 2
[7]; [22]
  Wheat plant response rating: 0
[7]; [23]
  Wheat plant response rating: 0
[7]; [24]
  Wheat plant response rating: 0
[7]; [25]
  Plant response rating, Wheat: 0
[8]; [18]
  Blackgrass plant response rating: 0
[8]; [19]
  Blackgrass plant response rating: 0
[8]; [20]
  Blackgrass plant response rating: 6
[8]; [21]
  Blackgrass plant response rating: 0
[8]; [22]
  Blackgrass plant response rating: 0
[8]; [23]
  Blackgrass plant response rating: 0
[8]; [24]
  Blackgrass plant response rating: 2
[8]; [25]
  Plant response rating, Blackgrass: 2
[9]; [18]
  Rape plant response rating: 0
[9]; [19]
  Rape plant response rating: 0
[9]; [20]
  Rape plant response rating: 0
[9]; [21]
  Rape plant response rating: 0
[9]; [22]
  Rape plant response rating: 1
[9]; [23]
  Rape plant response rating: 2
[9]; [24]
  Rape plant response rating: 0
[9]; [25]
  Plant response rating, Rape: 3
[10]; [18]
  Cocklebur plant response rating: 0
[10]; [19]
  Cocklebur plant response rating: 0
[10]; [20]
  Cocklebur plant response rating: 0
[10]; [21]
  Cocklebur plant response rating: 0
[10]; [22]
  Cocklebur plant response rating: 0
[10]; [23]
  Cocklebur plant response rating: 0
[10]; [24]
  Cocklebur plant response rating: 0
[10]; [25]
  Plant response rating, Cocklebur: 1
[11]; [18]
  Sugarbeets plant response rating: 0
[11]; [19]
  Sugarbeets plant response rating: 0
[11]; [20]
  Sugarbeets plant response rating: 0
[11]; [22]
  Sugarbeets plant response rating: 0
[11]; [23]
  Sugarbeets plant response rating: 0
[11]; [24]
  Sugarbeets plant response rating: 0
[11]; [25]
  Plant response rating, Sugarbeets: 0
[12]; [18]
  Bedstraw plant response rating: 0
[12]; [19]
  Bedstraw plant response rating: 0
[12]; [20]
  Bedstraw plant response rating: 10
[12]; [21]
  Bedstraw plant response rating: 0
[12]; [22]
  Bedstraw plant response rating: 0
[12]; [23]
  Bedstraw plant response rating: 0
[12]; [24]
  Bedstraw plant response rating: 2
[12]; [25]
  Plant response rating, Bedstraw: 0
[13]; [18]
  Soybean plant response rating: 0
[13]; [19]
  Soybean plant response rating: 0
[13]; [20]
  Soybean plant response rating: 0
[13]; [22]
  Soybean plant response rating: 0
[13]; [23]
  Soybean plant response rating: 2
[13]; [24]
  Soybean plant response rating: 0
[13]; [25]
  Plant response rating, Soybean: 2
[14]; [18]
  Velvetleaf plant response rating: 0
[14]; [19]
  Velvetleaf plant response rating: 0
[14]; [20]
  Velvetleaf plant response rating: 3
[14]; [22]
  Velvetleaf plant response rating: 0
[14]; [23]
  Velvetleaf plant response rating: 0
[14]; [24]
  Velvetleaf plant response rating: 0
[14]; [25]
  Plant response rating, Velvetleaf: 1
[15]; [26]
  S. Flatsedge plant response rating: 0
[15]; [27]
  S. Flatsedge plant response rating: 0
[15]; [28]
  S. Flatsedge plant response rating: 0
[15]; [29]
  S. Flatsedge plant response rating: 0
[16]; [26]
  Barnyardgrass plant response rating: 0
[16]; [27]
  Barnyardgrass plant response rating: 0
[16]; [28]
  Barnyardgrass plant response rating: 4
[16]; [29]
  Barnyardgrass plant response rating: 9
[17]; [26]
  Rice plant response rating: 0
[17]; [27]
  Rice plant response rating: 0
[17]; [28]
  Rice plant response rating: 0
[17]; [29]
  Rice plant response rating: 0

— patent US6737383B1, “Herbicidal oxadiazolidines” (priority 1999, dated 2004)
